Experimental data published in patent publication EP0332946B1, “The dipeptide L-pyroglutamyl-L-cysteine, having a high anti-cataractogenic activity, and pharmaceutical compositions containing the same” (S.I.F.I. Società Industria Farmaceutica Italiana S.p.A., priority 1988, dated 1993).
Read-outs that look alike come from different tables or passages of the source. Non-standard residues stand in square brackets, D forms with d. Residues, ends and D or L forms follow the SMILES beside them. pGlu = O=C1CC[C@@H](C(=O)O)N1

Experiments:
Male albino Wistar rats = assay: Cataract from tryptophan deficiency (in vivo experimental cataract model, slit lamp evaluation); conditions: rats on tryptophan-deficient diet, 30 days
Description: Said rats have been fed a synthetic diet devoid of tryptophan for a 30 days period and divided in three groups: the first animal group has been administered PGC subcutaneously at a dosage of 1 mg/kg in buffer solution, the second group has been administered a 10 mg/kg doses, whilst the animals of the third group have been injected only buffer solution.
The conditions of the various eye sections : conjunctiva, cornea, interior chamber, lens and vitreous humor have been evaluated at the slit lamp.
Especially the localisation and the degree of lens opaqueness have been scrutinized and documented by means of photographs.
It was possible to observe opaqueness predominantly at the level at the posterior capsule and there was also evidence of an initial sclerosis of the nucleus. No further alterations either at the level of the anterior segment or of the posterior segment have been observed.

[1] = system: Female albino Sprague-Dowely rats; assay: Cataract due to hypergalactosemic diet (in vivo experimental cataract model, slit lamp evaluation); conditions: rats on 50% galactose diet, 20 days; PGC 10% in buffer, one drop twice a day into the conjunctive sac
Text: Female albino Sprague-Dowely rats having an average weight of 70 g have been used. Said rats have been fed a diet consisting of 50% galactose and the remaining 50% standard rat food during a 20 days period. The animals have been divided in two groups: the first animal group has been administered PGC (10% in buffer) by instilling one drop twice a day into the conjuctive sac, both sides; the second group, consisting of control animals, has been administered buffer only.
The conditions of the various eye sections : conjunctiva, cornea, interior chamber, lens and vitreous humor have been evaluated at the slit lamp. The examination has been carried out before the beginning of the treatment and then on the 5th, 10th, 15th and 20th day.

rat lenses = assay: Experimental model of in vitro cataract (isolated lenses incubated in high-glucose culture broth); type: cell-based, rats; conditions: lenses treated with PGC 1M; 55.5 mM glucose
Description: Male albino Wistar rats having an average weight of 180 g have been used. After decapitation, both eye bulbs have been enucleated and the lenses have been removed from the back. The isolated lenses have been incubated at 37°C during 5 days in culture broth 199 containing 15% of foetal bovine serum (Laboratorio Gebco) and a 55.5 mM concentration of glucose. PGC has been added at a 1M concentration into the culture broth of only some lenses. The observations have been carried out at the 3rd and 5th day with the use of a stereo microscope and a Nikon camera with annular flash.
It can be observed that in the control lenses the opaqueness development begins after only 72 hours of incubation and is complete after 120 hours. In the lenses treated with PGC low levels of opaqueness can not be observed before 120 hours of treatment.

male New-Zealand rabbits [2] = assay: Toxicity (systemic tolerability) after intraperitoneal injection; type: in vivo
Description: The systemic tolerability of PGC has been studied also after acute administration by means of intraperitoneal injection.
10 rabbits have received the substance (400 mg/kg) injected intraperitoneally.
24 hours after the administration of the product, the following examination have been carried out on urine and blood: • blood cell (red and white) count • determination of glycemia and acotemia; • evaluation of SGOT and SGPT transaminases

male New-Zealand rabbits [3] = conditions: rabbit, in vivo

For `O=C1CC[C@@H](C(=O)N[C@@H](CS)C(=O)O)N1` [PGC, L-pyroglutamyl-L-cysteine] ([pGlu]-Cys-OH), the lens opaqueness (Male albino Wistar rats; PGC 1 mg/kg subcutaneously) was “perfectly transparent”, the lens opaqueness (Male albino Wistar rats; PGC 10 mg/kg subcutaneously) was “perfectly transparent” and the “effect on the formation of lens opaqueness” value [1] was “protective effect”. For the same compound, the “percent of opaque lenses as a whole in the treated animals relative to the controls” value [1] was 60%, the “time before low levels of opaqueness can be observed” value (rat lenses) was at least 120 h and the “changes of the hematological or hematochemical constants or of the urine composition” value (male New-Zealand rabbits [2]; PGC 400 mg/kg intraperitoneally, 24 hours after administration, urine and blood examination) was “not shown any changes”. The “growth modification relative to control animals” value (male New-Zealand rabbits [2]; PGC intraperitoneally) was “No growth modification”, the “BODY WEIGHT INCREASE (KG) ON DAY 0” value (male New-Zealand rabbits [2]; PGC intraperitoneally (400 mg/kg), day 0 (baseline), average ± SD, n=10) was 1.45 ± 0.05 kg and the “BODY WEIGHT INCREASE (KG) ON DAY 20” value (male New-Zealand rabbits [2]; PGC intraperitoneally (400 mg/kg), day 20, average ± SD, n=10) was 2.25 ± 0.08 kg. The “BODY WEIGHT INCREASE (KG) ON DAY 0” value (male New-Zealand rabbits [3]) was 1.60 ± 0.08 kg, the “BODY WEIGHT INCREASE (KG) ON DAY 20” value (male New-Zealand rabbits [3]) was 2.34 ± 0.12 kg and the “changes of the hematological or hematochemical constants or of the urine composition” value (male New-Zealand rabbits [3]) was “not shown any changes”. For the same compound, the “growth modification relative to control animals” value (male New-Zealand rabbits [3]) was “No growth modification”.
